Experimental data from paper PMC6508583 (Journal of the American Chemical Society, 2019).
Values after ≈ are worked out from the molar mass of the structure shown. Read-outs that look alike come from different tables or passages of the source.

Legend:
[1] = system: wild-type bacterial ribosome; assay: Cell-free translation assay, wild-type bacterial ribosome; format: biochemical; conditions: in vitro translation inhibition
[2] = system: Mit13 hybrid ribosome (decoding A site of the human mitochondrial ribosome); format: biochemical; conditions: for Selectivity Mit 13: Mit13 over wt bacterial ribosome; for IC50 Mit13: in vitro translation inhibition, Mit13 hybrid ribosome
[3] = system: A1555G mutant mitochondrial hybrid ribosome; format: biochemical, human; conditions: for Selectivity A1555G: A1555G over wt bacterial ribosome; for IC50 A1555G: in vitro translation inhibition, A1555G mutant mitochondrial hybrid ribosome
[4] = system: Cyt14 hybrid ribosome (decoding A site of the human cytoplasmic ribosome); format: biochemical; conditions: for Selectivity Cyt14: Cyt14 over wt bacterial ribosome; for IC50 Cyt 14: in vitro translation inhibition, Cyt14 hybrid ribosome
MRSA = assay: Antibacterial activity against reference strains: MRSA; format: cell-based; conditions: for MIC: Staphylococcus aureus, MRSA; for Antibacterial activity (MIC) MRSA AG038: strain AG038; for Antibacterial activity (MIC) MRSA AG042: strain AG042 carries the AAC(6)’, ANT(4’,4’’) and APH(3’) genes
E. cloacae = assay: Antibacterial activity against reference strains: E. cloacae; format: cell-based; conditions: for MIC: Enterobacter cloacae, read-out: Antibacterial activity (MIC) E. cloacae AG290; for Antibacterial activity (MIC) E. cloacae AG290: strain AG290
[5] = system: E coli 70S ribosome (helix 44, A1408); assay: Quantitative dimethyl sulfate footprinting of the 70S ribosome; format: binding; conditions: read-out: apparent Kd; DMS footprinting, % protection of N1 of A1408, E. coli 70S ribosome
[6] = system: E. coli carrying specific resistance determinants; assay: Activity against wild-type and engineered E. coli carrying specific AMEs or RMTs; format: cell-based; conditions: Escherichia coli
Mycobacterium abscessus = assay: microbe, parasite or virus in culture; format: cell-based; conditions: Mycobacteroides abscessus
[7] = system: Mycobacterium tuberculosis clinical isolates; assay: microbe, parasite or virus in culture; format: cell-based; conditions: Mycobacterium tuberculosis, read-out: MIC M. tuberculosis clinical isolates
E. coli = assay: Antibacterial activity against reference strains: E. coli; conditions: for MIC: Escherichia coli; for Antibacterial activity (MIC) E. coli AG003: strain AG003 carries the AAC(3) gene
K. pneumoniae = assay: Antibacterial activity against reference strains: K. pneumoniae; format: cell-based; conditions: strain AG215
A. baumannii = assay: Antibacterial activity against reference strains: A. baumannii; format: cell-based; conditions: strain AG225
P. aeruginosa = assay: Antibacterial activity against reference strains: P. aeruginosa; conditions: strain AG031 carries the APH(3’) gene
[8] = system: E. coli clinical isolates carrying two or more resistance determinants; assay: Activity against E. coli clinical isolates with multiple resistance determinants; format: cell-based; conditions: Escherichia coli
[9] = system: E. cloacae clinical isolates carrying two or more resistance determinants; format: cell-based; conditions: Enterobacter cloacae
[10] = read-out: Antibacterial activity (MIC) MRSA AG038
[11] = read-out: Antibacterial activity (MIC) MRSA AG042
[12] = read-out: Activity (MIC) E. coli AG006
[13] = read-out: Activity (MIC) E. coli AG007
[14] = read-out: Activity (MIC) E. coli AG008
[15] = read-out: Activity (MIC) E. coli AG009
[16] = read-out: Activity (MIC) E. coli AG036
[17] = read-out: Activity (MIC) E. coli AG103
[18] = read-out: Activity (MIC) E. coli AG105
[19] = read-out: Activity (MIC) E. coli AG166
[20] = read-out: Antibacterial activity (MIC) E. coli AG001
[21] = read-out: Antibacterial activity (MIC) E. coli AG003

| Structure (SMILES) | IC50 wt [1] | Selectivity Mit 13 [2] | IC50 Mit13 [2] | Selectivity A1555G [3] | IC50 A1555G [3] | Selectivity Cyt14 [4] | IC50 Cyt 14 [4] | MIC (MRSA; [10]) | MIC (MRSA; [11]) | MIC (E. cloacae) | MIC [6, 12] | MIC [6, 13] | MIC [6, 14] | MIC [6, 15] | MIC [6, 16] | MIC [6, 17] | MIC [6, 18] | MIC [6, 19] | MIC (E. coli; [20]) | MIC (E. coli; [21]) | other results |
| --- | --- | --- | --- | --- | --- | --- | --- | --- | --- | --- | --- | --- | --- | --- | --- | --- | --- | --- | --- | --- | --- |
| NC[C@@H]1O[C@H](O[C@H]2[C@@H](O)[C@H](O[C@@H]3[C@@H](O)[C@H](N)C[C@H](N)[C@H]3O[C@H]3O[C@H](CO)[C@@H](O)[C@H](O)[C@H]3N)O[C@@H]2CO)[C@H](N)[C@@H](O)[C@@H]1O [Compound 1, paromomycin, reference compound] | 0.02 µg/mL (≈ 0.0325 µM) | 2500 | 50 µg/mL (≈ 81.2 µM) | 270 | 5.4 µg/mL (≈ 8.77 µM) | 470 | 9.4 µg/mL (≈ 15.3 µM) | 4 µg/mL (≈ 6.5 µM) | > 256 µg/mL | 2 µg/mL (≈ 3.25 µM) | 1 to 2 µg/mL (≈ 1.62 to 3.25 µM) | 4 µg/mL (≈ 6.5 µM) | 2 to 4 µg/mL (≈ 3.25 to 6.5 µM) | 4 µg/mL (≈ 6.5 µM) | 32 to 64 µg/mL (≈ 52 to 104 µM) | 4 µg/mL (≈ 6.5 µM) | 2 µg/mL (≈ 3.25 µM) | > 128 µg/mL | 2 to 4 µg/mL (≈ 3.25 to 6.5 µM) | 8 to 16 µg/mL (≈ 13 to 26 µM) | Kd [5]: 590 ± 50 nM; MIC (Mycobacterium abscessus; read-out: MIC M. abscessus): 64 µg/mL (≈ 104 µM); MIC (Mycobacterium abscessus; read-out: MIC M. abscessus, AAC(2’) gene deleted): 16 µg/mL (≈ 26 µM); MIC [7]: 2 to 4 µg/mL (≈ 3.25 to 6.5 µM) |
| NC[C@@H]1O[C@H](O[C@H]2[C@@H](O)[C@H](O[C@@H]3[C@@H](O)[C@H](N)C[C@H](N)[C@H]3O[C@H]3O[C@H](CO)C[C@H](O)[C@H]3N)O[C@@H]2CO)[C@H](N)[C@@H](O)[C@@H]1O [Compound 2, 4’-deoxy paromomycin] | 0.05 µg/mL (≈ 0.0834 µM) | 1480 | 74 µg/mL (≈ 123 µM) | 480 | 24 µg/mL (≈ 40 µM) | 560 | 28 µg/mL (≈ 46.7 µM) | – | – | – | – | – | – | – | – | – | – | – | – | – | Antibacterial activity (MIC) MRSA AG038 (MRSA): 16 µg/mL; Antibacterial activity (MIC) MRSA AG042 (MRSA): 8 to 16 µg/mL; Antibacterial activity (MIC) K. pneumoniae AG215 (K. pneumoniae): 4 µg/mL; Antibacterial activity (MIC) E. cloacae AG290 (E. cloacae): 4 to 8 µg/mL; Antibacterial activity (MIC) A. baumannii AG225 (A. baumannii): 8 µg/mL; Antibacterial activity (MIC) E. coli AG003 (E. coli): 32 µg/mL |
| CCC1C(CO)OC(OC2C(N)CC(N)C(O)C2OC2OC(CO)C(OC3OC(CN)C(O)C(O)C3N)C2O)C(N)C1O (centres unmarked) [Compound 35] | 0.06 µg/mL (≈ 0.0956 µM) | 3033 | 182 µg/mL (≈ 290 µM) | 2150 | 129 µg/mL (≈ 206 µM) | 1867 | 112 µg/mL (≈ 178 µM) | – | – | – | – | – | – | – | – | – | – | – | – | – | Antibacterial activity (MIC) MRSA AG038 (MRSA): 8 µg/mL; Antibacterial activity (MIC) MRSA AG042 (MRSA): 4 to 8 µg/mL; Antibacterial activity (MIC) K. pneumoniae AG215 (K. pneumoniae): 4 µg/mL; Antibacterial activity (MIC) E. cloacae AG290 (E. cloacae): 4 to 8 µg/mL; Antibacterial activity (MIC) A. baumannii AG225 (A. baumannii): 16 to 32 µg/mL; Antibacterial activity (MIC) E. coli AG001 (E. coli; strain AG001): 8 µg/mL; Antibacterial activity (MIC) E. coli AG003 (E. coli): 8 µg/mL; Antibacterial activity (MIC) P. aeruginosa AG031 (P. aeruginosa): 64 to 128 µg/mL |
| NC[C@H]1O[C@H](O[C@H]2[C@H](O)[C@@H](O[C@H]3O[C@H](CO)[C@@H](O)[C@H](N)[C@H]3O)[C@H](N)C[C@@H]2N)[C@H](N)C[C@@H]1O [Tobramycin] | 0.02 µg/mL (≈ 0.0428 µM) | 750 | 15 µg/mL (≈ 32.1 µM) | 25 | 0.5 µg/mL (≈ 1.07 µM) | 1350 | 27 µg/mL (≈ 57.8 µM) | 0.5 to 1 µg/mL (≈ 1.07 to 2.14 µM) | ≥ 256 µg/mL | 0.5 to 1 µg/mL (≈ 1.07 to 2.14 µM) | 0.5 µg/mL (≈ 1.07 µM) | 4 µg/mL (≈ 8.56 µM) | 8 µg/mL (≈ 17.1 µM) | 64 to 128 µg/mL (≈ 137 to 274 µM) | 16 to 32 µg/mL (≈ 34.2 to 68.4 µM) | > 128 µg/mL | 1 µg/mL (≈ 2.14 µM) | 0.5 to 1 µg/mL (≈ 1.07 to 2.14 µM) | 1 to 2 µg/mL (≈ 2.14 to 4.28 µM) | 4 µg/mL (≈ 8.56 µM) | MIC ([8]; read-out: Activity (MIC) E. coli isolate 201430298): 256 µg/mL (≈ 548 µM); MIC ([8]; read-out: Activity (MIC) E. coli isolate 201441114): 32 µg/mL (≈ 68.4 µM); MIC ([8]; read-out: Activity (MIC) E. coli isolate 2014251408): 128 µg/mL (≈ 274 µM); MIC ([8]; read-out: Activity (MIC) E. coli isolate 2014405344): > 256 µg/mL; MIC ([9]; read-out: Activity (MIC) E. cloacae isolate 201333207): 32 µg/mL (≈ 68.4 µM); MIC ([9]; read-out: Activity (MIC) E. cloacae isolate 201385168): > 256 µg/mL; MIC ([9]; read-out: Activity (MIC) E. cloacae isolate 201430601): 32 µg/mL (≈ 68.4 µM); MIC ([9]; read-out: Activity (MIC) E. cloacae isolate 201435487): 16 µg/mL (≈ 34.2 µM) |
